The values below come from patent US20180362921A1, “EXTRACTION AND PROCESS FOR ACTIVE THYLAKOID MEMBRANES” (GROUPE SANTÉ DEVONIAN INC., priority 2015, published 2018).

The assay concerns the target T1, PSII reaction centers of thylakoid extract (Spinacia oleracea, UniProt P69560).
T1 construct: both lyophilized thylakoid extracts were resuspended in: Tris-HCl 50 mM pH 7.5; sorbitol 330 mM; from tissue; host or cells: plant thylakoid membrane extract (lyophilized, rehydrated)
The assay can be described thus: Inhibition of Fv/Fm (photosynthetic efficiency) of thylakoid extract by atrazine. In kind it is biochemical, Spinacia oleracea L.

Molecules are shown by their SMILES. Where two headings read alike, the source gives them in different places.

Experimental: Each re-suspended extract was dark-incubated for 15 min with the appropriate atrazine concentration for 15 minutes.
Absorbed light was measured with a FMS1 Hansatech Instrument (Schreiber et al., 1986; lab based modulated fluorescence); under excitation light beam at 470 nm. In dark adapted condition, the following fluorescence parameters can be obtained or calculated: • Fo: minimal fluorescence when PSII reaction centers are in the fully oxidized state. It is obtained at the beginning of fluorescence measurement when only the modulating beam is illuminated. • Fm: obtained with an intense saturating pulse (2 000 μmol photons m^2/s) allowing maxi mum PSII fluorescence emission. • Fv: variable fluorescence is obtained by the difference between Fm and Fo and corresponds to maximum capacity for photochemical energy quenching.
Fv/Fm: this ratio is proportional to quantum efficiency of PSII reaction centers (Butker 1977, 1978) and represents a correlation between the chlorophyll fluorescence and the photochemical reactions (for instance oxygen evolution).
Any molecule affecting the photosystems will modify either Fo or Fm which modification necessarily disrupts (increases or decreases) the photosynthetic efficiency. […]

For `CCNc1nc(Cl)nc(NC(C)C)n1` [atrazine], the IC50 (IC50 (atrazine concentration inhibiting 50% of the efficiency parameter), extract after 7 days at 20° C., 5 μg/mL chlorophyll, 15 min dark incubation) was 116 nM and the IC50 (several batches of thylakoid extract, 95% confidence, FIG. 4, read-out: IC50 of an accepted lot (within 2σ of the mean IC50)) lay in the range of 76.5 to 218 nM.
